Laboratory results: patent publication US20060004088A1, “Furan derivatives for preventing and curing osteoporosis and pharmaceutical compositions containing the same” (OCT INC., priority 2002, published 2006)
“Also recorded” adds a separate entry of the source.

Legend:
[1] = test system: transcriptional factor Runx2; test: Runx2 expression, p6xOSE2-Luc luciferase assay in C2C12 cells; type: cell-based, mouse
Description: (§1) In the following tests, three kinds of cell lines were used. The human osteosarcoma cell lines, MG-63 (ATCC No. CRL-1427) and HOS (ATCC No. CRL-1543), and mouse muscle C2C12 muscle cells (ATCC No. CRL-1772) were purchased from ATCC (American Type Culture Collection, Rockville, USA), and cultured in Dulbecco's modified Eagle's medium (DMEM) supplemented with 10% fetal bovine serum (FBS).
Primarily, transient transfection was carried out using a p6xOSE2-Luc vector, which was prepared by inserting into a pGL3 promoter vector six tandem copies of the OSE2 motif, the binding site of the transcriptional factor Runx2 that is a critical regulator for osteoblast differentiation. Runx2 expression levels were determined by luciferase assay. The test procedure will be described in more detail, as follows.
C2C12 cells were plated onto 6-well plates at a density of 1(10^5 cells per well, and cultured for 24 hrs in a 5% CO2 incubator.
Then, the cells transiently transfected with the p6xOSE2-Luc vector using a transfection reagent, LipofectAmine, as follows. The plasmid DNA was reacted with the transfection reagent for 15 min to form p6xOSE2-Luc DNA:lipofectamine complexes. During this reaction, culture medium was removed from each well of the plates, the cells were washed with FBS-free DMEM, and 800 μl of FBS-free DMEM was added to each well. […]

[2] = test system: alkaline phosphatase (ALP) in HOS cells; test: Alkaline phosphatase (osteoblast marker enzyme) activity in HOS cells; type: cell-based, human; conditions: text summary, concentration not stated
Description: as §1
To examine whether the Compound 1 affects positively or negatively osteoblast activity, alkaline phosphatase (ALP) activity was measured. HOS cells were aliquotted onto a 96-well microplate at a density of 5×10^3 cells per well, and cultured. When forming a monolayer, the cells were treated with the naturally extracted compound (Compound 1) at prescribed concentrations. After incubation in 10% FBS-containing DMEM for 48 hrs, the cells were treated with 0.1% Triton X-100/saline for 30 min at 37° C. A portion of each cell lysate was reacted with 0.1 N glycine-NaOh buffer (pH 10.4) for 30 min at 37° C. in the presence of 100 mM nitrophenyl phosphate (PNPP) as a substrate of alkaline phosphate. The amount of PNP (ρ-nitrophenol) released from the substrate PNPP was determined by measuring absorbance at 405 nm. Protein amount was determined by a modified Lowry method, and enzyme activity was designated as nmol substrate cleaved/h/mg protein.

[3] = test system: female white mice with osteoporosis induced by ovariectomy; test: Preventive effect 1 on osteoporosis, tibia histology, oral administration; type: in vivo; conditions: oral for four weeks immediately after ovariectomy
Description: In order to evaluate effects of the compound of the present invention on treatment and prevention of osteoporosis, female white mice with osteoporosis induced by ovariectomy were used as a disease model. After ovariectomy, mice were administered with the compound of the present invention. Tibias were dissected from the mice, and observed histologically.
After anesthetizing female white mice with 100 mg/kg of Ketamine (Ketara) and 0.15 ml/kg of 2% Xylazine (Rompun), the lumbar dorsum is shaved bilaterally and the exposed skin was prepared for aseptic surgery by a 10% povidone-iodine scrub followed by a 70% alcohol wipe.
A 1-cm incision was made in the central region of the abdomen, and the ovary was identified along with the uterus with caution not to damage the main organs such as the liver and diaphragm. After ligating the uterus with a thread for suturing, the exposed ovary was severed toward both sides and removed. Thereafter, each organ was relocated to its original position, and the incision was closed with a thread for suturing in an interrupted pattern. […]
The daily dosage of the Compound 1 per female white mouse was determined based on 250 g body weight. […] With caution not to exchange the water bottles between the groups, everyday, the number of mice was recorded, and the mixture was prepared based on the number of mice. […]

[4] = test system: osteoprotegerin (OPG); test: Osteoprotegerin (OPG) expression in MG63 cells, OPG ELISA; type: cell-based, human; conditions: for OPG expression level in MG63 cells, %: control = 100
Description: as §1
When MG63 cells grew confluently on 96-well plates, […] of FBS-free DMEM containing various concentrations of the Compound 1 was added to each well. After incubation for 16 hrs, the culture supernatants were collected. The amount of OPG released into the medium was determined using an OPG ELISA kit.

O=Cc1ccc(CO)o1 [Compound 1, 5-hydroxymethylfuran-2-carboxyaldehyde]
effect on activity of Runx2 (in words) [1]: increase the activity of Runx2
alkaline phosphatase activity compared to a control not treated [2]: about 121%
alkaline phosphatase activity compared to a control not treated ([2]; listed as Example 1): 120%
cortical and trabecular bone compared to the control group, 40× magnification [3]: marked increase in the cortical and trabecualr bone
trabecular bone loss in tibia, light microscopy ([3]; 10 mg/day, 12.5× and 40× magnification): such trabecular bone loss was not observed; also recorded: no trabecular bone loss
effect on expression of osteoprotegerin (OPG) in osteoblasts (in words) [4]: increases the expression of osteoprotegerin (OPG)
OPG expression level in MG63 cells, % ([4]; 10^−6 M Compound 1, 16 hrs): 866.90 ± 10.59%
OPG expression level in MG63 cells, % ([4]; 10^−8 M Compound 1, 16 hrs): 204.30 ± 14.96%
